Consider 79 compounds from PubChem BioAssay AID2202554 (NIEHS Division of Translational Toxicology (DTT)).

Inconclusive results are not listed. Active and inactive are the calls of the source. How the calls were made is not given here.

The data set relates to S. typhimurium/E. coli reverse mutation, colony counts. Description: Bacterial reverse mutation test (aka Ames test) summary data. Summed up: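 Revertant colony counts on plates, compared with untreated controls, after about two days of growth. Exposure with or without liver S9 (rat/hamster/mouse), dose range per strain, 20-min 37° C preincubation or direct plate incorporation. Strains: his⁻ Salmonella, trp⁻ E. coli WP2 uvrA pKM101.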
A general note: The Ames test uses bacterial strains that need an amino acid and regain growth without it when mutated back.

Take `NCCc1ccc(O)c(O)c1`: the outcome was “active; weakly positive”.

`O=[N+]([O-])c1ccccc1O`: the outcome was “inactive; negative”.

For `OCCNCCO`, the outcome is “inactive; negative”.

Consider `CCCCC(CC)COP(=O)(OCC(CC)CCCC)OCC(CC)CCCC` (centres undefined), for which the outcome is “inactive; negative”.

Consider `Oc1c(Cl)cc(Cl)c(Cl)c1Cc1c(O)c(Cl)cc(Cl)c1Cl`, for which the outcome is “inactive; negative”.

For the compound `CCC(C)C(C)CO` (centres undefined), the outcome is “inactive; negative”.

`O=[N+]([O-])c1cccc(O)c1`: the outcome was “active; weakly positive”.

With `CN(C)c1ccc(C2(c3ccc(N(C)C)cc3)OC(=O)c3cc(N(C)C)ccc32)cc1`, the outcome was “inactive; negative”.

As for `Nc1ccc(-c2ccc(N)cc2S(=O)(=O)O)c(S(=O)(=O)O)c1`, the outcome was “inactive; negative”.

Regarding `COCCOCCOCCOC`, the outcome is “active; positive”.

With `CN(C)c1ccc(N=O)cc1`, the outcome was “active; positive”.

`CCCCCCCCCCCCS`: the outcome is “inactive; negative”.

Turning to `O=[N+]([O-])C(Br)(Br)Br`, the outcome was “active; weakly positive”.

Consider `ONc1ccccc1`, for which the outcome was “active; positive”.

Take `CNc1ccccc1N`: the outcome was “active; positive”.

As to `CCC[CH2][Sn]([Cl])([Cl])[Cl]`, the outcome was “inactive; negative”.

For `O=C(Nc1ccccc1)c1cc2ccccc2c(N=Nc2cc(Cl)ccc2Cl)c1O`, the outcome was “active; weakly positive”.

In the case of `C1COCOC1`, the outcome is “active; weakly positive”.

As to `C=C(C)C1CC=C(C)C(OC(C)=O)C1` (centres undefined), the outcome was “inactive; negative”.

With `Oc1c(Cl)c(Cl)c(Cl)c(Cl)c1Cl`, the outcome was “inactive; negative”.

Regarding `O=C1C2CC=CCC2C(=O)N1SC(Cl)(Cl)Cl` (centres undefined), the outcome was “active; positive”.

Consider `ClCC(Cl)(Cl)Cl`, for which the outcome is “inactive; negative”.

Turning to `CCCCCc1cc(O)c2c(c1)OC(C)(C)[C@@H]1CCC(C)=C[C@@H]21`, the outcome is “inactive; negative”.

Take `CCCN(CCC)c1c([N+](=O)[O-])cc(C(F)(F)F)cc1[N+](=O)[O-]`: the outcome is “active; positive”.

As for `O=C(O)CC(C(=O)O)C(CC(=O)O)C(=O)O` (centres undefined), the outcome was “active; positive”.

As to `Cc1cscn1`, the outcome was “inactive; negative”.

With `COc1ccc(C2=N[C@H](c3ccc(Cl)cc3)[C@H](c3ccc(Cl)cc3)N2C(=O)N2CCNC(=O)C2)c(OC(C)C)c1`, the outcome is “inactive; negative”.

On to `Cc1ccc([N+](=O)[O-])c(N)c1`, for which the outcome was “inactive; negative”.

Regarding `CCCCCCCCCCCC(=O)N(CCO)CCO`, the outcome is “inactive; negative”.

For the compound `O=C(O)c1ccc(Cl)c(Cl)c1`, the outcome is “inactive; negative”.

For the compound `N#CCCO`, the outcome is “inactive; negative”.

On to `CC(=O)OC/C=C(\C)CCC=C(C)C`, for which the outcome was “inactive; negative”.

Take `Cc1ccccc1N=Nc1c(O)ccc2ccccc12`: the outcome is “active; positive”.

As to `Cc1cc(C)cc(O)c1`, the outcome was “inactive; negative”.

For the compound `O=C1CN(N=Cc2ccc([N+](=O)[O-])o2)C(=O)N1`, the outcome is “active; positive”.

As to `Nc1ccc2ccccc2c1N=Nc1ccc([N+](=O)[O-])cc1`, the outcome is “active; positive”.

As to `NCCNCCNCCN`, the outcome was “active; positive”.

With `FC(F)(F)c1ccc(Cl)cc1`, the outcome was “inactive; negative”.

For the compound `CC(=O)c1nccs1`, the outcome is “inactive; negative”.

As for `OCC(O)CI` (centres undefined), the outcome is “active; positive”.

For `CCc1cccc(N)c1`, the outcome was “inactive; negative”.

For `C=CC(=C)CCC=C(C)C`, the outcome was “inactive; negative”.

As for `CC(C)(c1cc(Br)c(O)c(Br)c1)c1cc(Br)c(O)c(Br)c1`, the outcome was “inactive; negative”.

Regarding `CC(C)C(C)C`, the outcome was “inactive; negative”.

For the compound `c1ccc(CSCc2ccccc2)cc1`, the outcome was “inactive; negative”.

For `O=[N+]([O-])c1ccc(O)c([N+](=O)[O-])c1`, the outcome was “inactive; negative”.

For the compound `CC(C)CN(CC(C)C)CC(C)C`, the outcome is “inactive; negative”.

For `CCN(CC)CCCC(C)Nc1c2ccc(Cl)cc2nc2ccc(OC)cc12` (centres undefined), the outcome was “active; positive”.

On to `CCCCCCCC(=O)O`, for which the outcome was “inactive; negative”.

For `c1ccc(C2CO2)cc1` (centres undefined), the outcome is “active; positive”.

In the case of `COC(=O)C1CCC(C(=O)OC)CC1` (centres undefined), the outcome is “active; positive”.

With `CCN(CC)c1cccc(O)c1`, the outcome was “active; positive”.

Regarding `CCOC(=O)C1OC1c1ccccc1` (centres undefined), the outcome is “inactive; negative”.

Take `CCCCOP(=O)(OCCCC)Oc1ccccc1`: the outcome is “inactive; negative”.

Take `CC(O)CBr` (centres undefined): the outcome was “active; positive”.

For `NCN`, the outcome was “active; positive”.

On to `Cc1ccc(S(N)(=O)=O)cc1`, for which the outcome was “inactive; negative”.

For the compound `O=C(O)C1=NN(c2ccc(S(=O)(=O)O)cc2)C(=O)C1N=Nc1ccc(S(=O)(=O)[O-])cc1.O=C(O)C1=NN(c2ccc(S(=O)(=O)O)cc2)C(=O)C1N=Nc1ccc(S(=O)(=O)[O-])cc1.O=C(O)C1=NN(c2ccc(S(=O)(=O)O)cc2)C(=O)C1N=Nc1ccc(S(=O)(=O)[O-])cc1.[Al+3]` (centres undefined), the outcome is “inactive; negative”.

With `Cc1cc(C)c(C)c(C)c1`, the outcome was “inactive; negative”.

For `C=CCCCC`, the outcome is “inactive; negative”.

In the case of `COC(=O)CCCC(=O)OC`, the outcome is “inactive; negative”.

In the case of `O=C(O)c1ccc2c(c1)C(=O)OC2=O`, the outcome was “inactive; negative”.

Turning to `O=C(NO)c1ccccc1`, the outcome is “active; positive”.

As for `CCCCOCCOCCSC#N`, the outcome is “inactive; negative”.

On to `CC(=O)c1cc(C)oc1C`, for which the outcome was “active; positive”.

Consider `Oc1cccc(Cl)c1`, for which the outcome is “inactive; negative”.

As for `CCCCCCCCCCCCCCCCCCN`, the outcome is “inactive; negative”.

As for `Cc1ccc2oc(=O)ccc2c1`, the outcome was “inactive; negative”.

In the case of `CN=[N+](C)[O-]`, the outcome was “active; weakly positive”.

On to `O=C1OC(=O)c2ccccc21`, for which the outcome is “inactive; negative”.

Consider `O.O=C([O-])c1ccccn1.O=C([O-])c1ccccn1.O=C([O-])c1ccccn1.[Cr+3]`, for which the outcome is “inactive; negative”.

Take `CC(O)CN(C)C` (centres undefined): the outcome was “inactive; negative”.

Consider `O=C(O)CN(CC(=O)O)CC(=O)O`, for which the outcome was “inactive; negative”.

Take `CC=CC=O`: the outcome was “active; positive”.

Take `Nc1ccc(Cl)cc1Cl`: the outcome was “active; weakly positive”.

Regarding `N#CCC#N`, the outcome is “inactive; negative”.

In the case of `CC(COc1ccccc1)N(CCCl)Cc1ccccc1` (centres undefined), the outcome was “active; positive”.

As to `O=c1c2ccccc2c(=O)c2c1ccc1[nH]c3c(ccc4c(=O)c5ccccc5c(=O)c43)[nH]c12`, the outcome is “inactive; negative”.

Take `CC(=O)C(N=Nc1ccc(-c2ccc(N=NC(C(C)=O)C(=O)Nc3ccccc3)c(Cl)c2)cc1Cl)C(=O)Nc1ccccc1` (centres undefined): the outcome was “inactive; negative”.
